From patent US10583109B2, “Use of silver(I) complexes as anticancer agents” (University of Johannesburg, priority 2012, dated 2020)

Experiments:
Format in all cases: cell-based, human
Caspase 3/7 = experiment: Caspase-GLO 3/7 assay in A375 cells; conditions: 10 μM, 24 hour treatments
Description: Caspase-GLO™ 3/7, 8 and 9 Assays are luminescent assays that measure Caspase activities, which have key effector functions in intrinsic and extrinsic apoptosis, therefore the amount of luminescence measured is proportional to the amount of Caspase activity present. The assays are based on the principle that after Caspase cleavage, a substrate containing the tetrapeptide DEVD sequence binds with Caspase and is released for a luminescent reaction with a thermostable luciferase enzyme. In duplicate, a 1:1 cell sample to Caspase-Glo™ substrate/buffer mix reagent was added into 96-well black plates, then shaken for 30 seconds at room temperature followed by a 1 hour incubation. Whole luminescence was then measured with a Synergy HT Multi-Detection Microplate Reader.
FIG. 26 depicts Caspase 3/7, 8 and 9 levels in differentially treated A375 malignant melanoma cancer cells as determined by relative luminescence recorded using Caspase-GLO™ assays. Caspase levels represented as a percentage of 1.0% DMSO Vehicle Control (VC) set at 100%. Cells treated with: CDDP=100 μM Cisplatin Positive Apoptotic Control and then 10 μM concentrations of complex (13) and complex (14). […]

[1] = tested on: A375 malignant melanoma cancer cells; experiment: CytoTox-ONE Membrane Integrity Assay (LDH) in A375 cells; conditions: 10 µM
Protocol: (§1) For purposes of the Celltitre-Glo™ Luminescent Cell Viability [Promega, USA] assay, a 1:1 mixture of cell sample to Celltitre-Glo™ substrate/buffer mix reagent, in duplicate, was added to 96-well black plate, shaken for 30 seconds at room temperature and then further incubated for 30 minutes. Whole luminescence was then measured with a Synergy HT Multi-Detection Microplate Reader. The CytoTox-ONE™ Homogenous Membrane Integrity [Promega, USA] assay is a rapid fluorescent assay that measures the level of lactate dehydrogenase leaked from damaged membranes, therefore, the amount of fluorescence measured is directly proportional to the amount of lysed/damaged cells. In triplicate, a 1:1 cell sample to CytoTox-ONE™ substrate/buffer mix reagent was added to a 96-well clear plate, shaken for 30 seconds followed by incubation for 10 minutes. A CytoTox-ONE™ stop solution was added to each sample followed by a further 30 second shake on an orbital shaker. […] The fluorescence was then measured with a Synergy HT Multi-Detection Microplate Reader at an excitation wavelength of 530 nm and emission wavelength of 590 nm. FIG. 25 depicts the percentage ATP and Lactate Dehydrogenase (LDH) measured in differentially treated A375 malignant melanoma cancer cells as determined by the Celltitre-Glo™ Luminescent Cell Viability Assay and CytoTox-ONE™ Membrane Integrity Assay respectively. […]

[2] = tested on: A375 malignant melanoma cancer cells; experiment: Celltitre-Glo Luminescent Cell Viability Assay (ATP) in A375 cells; conditions: 10 µM
Protocol: as §1

[3] = tested on: A375 malignant melanoma cancer cells; experiment: AlamarBlue viability and proliferation assay of A375 malignant melanoma cancer cells; conditions: concentration range 1.0 μM-10.0 μM, viability as percentage of 1.0% DMSO vehicle control, quadratic equation
Protocol: A375 melanoma cancer cells originate from an immortal cell line from human malignant melanoma from skin (ATCC no CRL-1619).
A375 malignant melanoma cancer cells were cultured in Dulbecco's Modified Eagle's Medium (DMEM), 13.53 g/L with sodium bicarbonate (NaHCO3), 3.7 g/L supplemented with 10% fetal bovine serum (FBS), and 1% Penicillin/Streptomycin/Fungizone in 75 cm^3 sterile culture flasks. Cells were incubated at 37° C. with 5% CO2 in a humidified atmosphere and were subcultured twice a week. Cells were subcultured every 48 hours and used between Passages 3 and 7. […]
An AlamarBlue® (Serotec, UK) assay was done to investigate the proliferation capabilities of the differentially treated cells. AlamarBlue® dye (10%) was incubated with trypsinized cells over a 2-hour period before the fluorescence was measured with a Synergy HT Multi-Detection Microplate reader (BioTek, Winooski, Vt.) at wavelengths of 530 nm and (excitation) and 590 nm (emission). […]
Treatment volumes were 1.0 μL of 1-10 μM range of stock solutions. Fluorescence was measured with 530 nm excitation wavelength and 590 nm emission wavelength. FIG. 21 represents 3 biological repeats measured in triplicate. DMEM reference blanks were averaged and subtracted from all readings and cellular viability values were calculated as percentage of the 1.0% DMSO vehicle control (VC). […]

SMILES	Caspase 3/7 levels compared to the VC (Caspase 3/7)	LDH levels compared to the VC [1]	ATP levels (cellular viability) [2]	IC50 [3] [µM]
[Br][Ag]([PH](c1ccccc1)(c1ccccc1)c1ccccc1)([PH](c1ccccc1)(c1ccccc1)c1ccccc1)[PH](c1ccccc1)(c1ccccc1)c1ccccc1 [complex (13), AgBr(PPh3)3]	increased	significant increase	less than 20%	5.16
O=[N+]([O-])[O-].[Ag+].c1ccc(P(c2ccccc2)c2ccccc2)cc1.c1ccc(P(c2ccccc2)c2ccccc2)cc1.c1ccc(P(c2ccccc2)c2ccccc2)cc1 [complex (14), AgNO3(PPh3)3]	increased	significant increase		6.77
